# Tested on: 282377-053-R-J1-PDC complex spheroid viability
# Assay: Anticancer human tumor 282377-053-R-J1-PDC patient-derived colon adenocarcinoma cell line growth inhibition [RAS]
# Settings: for IC50: curve of first compound; for viability, T/C: stronger effect = lower value
# Method in brief: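 Agents were tested in combination matrices in half-log decrements from a top concentration at or near clinical Cmax (10 microM if undetermined). Targets were multi-cell spheroids of tumour lines plus HUVEC and MSC stromal cells.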
# [1] = second compound 0.000949 µM, first compound 0.0316 µM
# [2] = second compound 0.000949 µM, first compound 0.1 µM
# [3] = second compound 0.000949 µM, first compound 0.316 µM
# [4] = second compound 0.000949 µM, first compound 1 µM
# [5] = second compound 0.000949 µM, first compound 3.16 µM
# [6] = second compound 0.000949 µM, first compound 10 µM
# [7] = second compound 0.003 µM, first compound 0.0316 µM
# [8] = second compound 0.003 µM, first compound 0.1 µM
# [9] = second compound 0.003 µM, first compound 0.316 µM
# [10] = second compound 0.003 µM, first compound 1 µM
# [11] = second compound 0.003 µM, first compound 3.16 µM
# [12] = second compound 0.003 µM, first compound 10 µM
# [13] = second compound 0.00949 µM, first compound 0.0316 µM
# [14] = second compound 0.00949 µM, first compound 0.1 µM
# [15] = second compound 0.00949 µM, first compound 0.316 µM
# [16] = second compound 0.00949 µM, first compound 1 µM
# [17] = second compound 0.00949 µM, first compound 3.16 µM
# [18] = second compound 0.00949 µM, first compound 10 µM
# [19] = second compound 0.03 µM, first compound 0.0316 µM
# [20] = second compound 0.03 µM, first compound 0.1 µM
# [21] = second compound 0.03 µM, first compound 0.316 µM
# [22] = second compound 0.03 µM, first compound 1 µM
# [23] = second compound 0.03 µM, first compound 3.16 µM
# [24] = second compound 0.03 µM, first compound 10 µM
# [25] = second compound 0.0949 µM, first compound 0.0316 µM
# [26] = second compound 0.0949 µM, first compound 0.1 µM
# [27] = second compound 0.0949 µM, first compound 0.316 µM
# [28] = second compound 0.0949 µM, first compound 1 µM
# [29] = second compound 0.0949 µM, first compound 3.16 µM
# [30] = second compound 0.0949 µM, first compound 10 µM
# [31] = second compound 0.3 µM, first compound 0.0316 µM
# [32] = second compound 0.3 µM, first compound 0.1 µM
# [33] = second compound 0.3 µM, first compound 0.316 µM
# [34] = second compound 0.3 µM, first compound 1 µM
# [35] = second compound 0.3 µM, first compound 3.16 µM
# [36] = second compound 0.3 µM, first compound 10 µM
# 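Further: spheroids exposed to agents for seven days before readout.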
# 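Wherever viability, T/C is given: luminescence viability as percent of DMSO vehicle control wells.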
structure (smiles),measurement,setting,value
CC1(O)CCCC1n1c(=O)c(C(F)F)cc2cnc(NC3CCN(S(C)(=O)=O)CC3)nc21 (centres undefined) + CCn1c(-c2cccnc2C(C)OC)c2c3cc(ccc31)N1CCOC(CC(NC(=O)C(C(C)C)N(C)C(=O)C3(F)CCN(C(=O)C#CC(C)(C)N(C)C)CC3)C(=O)N3CCCC(N3)C(=O)OCC(C)(C)C2)C1,IC50,second compound 0.000949 µM,6.89 µM
same,IC50,second compound 0.003 µM,7.15 µM
same,IC50,second compound 0.00949 µM,7.05 µM
same,IC50,second compound 0.03 µM,6.9 µM
same,IC50,second compound 0.0949 µM,7.3 µM
same,IC50,second compound 0.3 µM,6.87 µM
same,"viability, T/C",[1],118%
same,"viability, T/C",[2],112%
same,"viability, T/C",[3],171%
same,"viability, T/C",[4],144%
same,"viability, T/C",[5],159%
same,"viability, T/C",[6],6.67%
same,"viability, T/C",[7],129%
same,"viability, T/C",[8],128%
same,"viability, T/C",[9],140%
same,"viability, T/C",[10],131%
same,"viability, T/C",[11],218%
same,"viability, T/C",[12],8.84%
same,"viability, T/C",[13],122%
same,"viability, T/C",[14],97%
same,"viability, T/C",[15],153%
same,"viability, T/C",[16],156%
same,"viability, T/C",[17],199%
same,"viability, T/C",[18],8.76%
same,"viability, T/C",[19],105%
same,"viability, T/C",[20],111%
same,"viability, T/C",[21],153%
same,"viability, T/C",[22],159%
same,"viability, T/C",[23],165%
same,"viability, T/C",[24],7.79%
same,"viability, T/C",[25],121%
same,"viability, T/C",[26],120%
same,"viability, T/C",[27],201%
same,"viability, T/C",[28],181%
same,"viability, T/C",[29],214%
same,"viability, T/C",[30],5.91%
same,"viability, T/C",[31],111%
same,"viability, T/C",[32],129%
same,"viability, T/C",[33],146%
same,"viability, T/C",[34],155%
same,"viability, T/C",[35],158%
same,"viability, T/C",[36],6.46%
CCC(CC)c1cc(NC2CCC(N)C2)n2nccc2n1 (centres undefined) + CCn1c(-c2cccnc2C(C)OC)c2c3cc(ccc31)N1CCOC(CC(NC(=O)C(C(C)C)N(C)C(=O)C3(F)CCN(C(=O)C#CC(C)(C)N(C)C)CC3)C(=O)N3CCCC(N3)C(=O)OCC(C)(C)C2)C1,IC50,second compound 0.000949 µM,1.72 µM
same,IC50,second compound 0.003 µM,1.67 µM
same,IC50,second compound 0.00949 µM,1.76 µM
same,IC50,second compound 0.03 µM,1.85 µM
same,IC50,second compound 0.0949 µM,1.61 µM
same,IC50,second compound 0.3 µM,1.78 µM
same,"viability, T/C",[1],98.1%
same,"viability, T/C",[2],105%
same,"viability, T/C",[3],81.3%
same,"viability, T/C",[4],87%
same,"viability, T/C",[5],8.86%
same,"viability, T/C",[6],3.59%
same,"viability, T/C",[7],86.3%
same,"viability, T/C",[8],105%
same,"viability, T/C",[9],79.4%
same,"viability, T/C",[10],81.4%
same,"viability, T/C",[11],10.8%
same,"viability, T/C",[12],3.49%
same,"viability, T/C",[13],114%
same,"viability, T/C",[14],93.9%
same,"viability, T/C",[15],99%
same,"viability, T/C",[16],89%
same,"viability, T/C",[17],9.93%
same,"viability, T/C",[18],2.98%
same,"viability, T/C",[19],81.2%
same,"viability, T/C",[20],111%
same,"viability, T/C",[21],102%
same,"viability, T/C",[22],95.3%
same,"viability, T/C",[23],10.7%
same,"viability, T/C",[24],4.2%
same,"viability, T/C",[25],96.8%
same,"viability, T/C",[26],110%
same,"viability, T/C",[27],89.8%
same,"viability, T/C",[28],77.4%
same,"viability, T/C",[29],11.2%
same,"viability, T/C",[30],4.78%
same,"viability, T/C",[31],112%
same,"viability, T/C",[32],90.2%
same,"viability, T/C",[33],95%
same,"viability, T/C",[34],87.6%
same,"viability, T/C",[35],12.6%
same,"viability, T/C",[36],4.08%
